Test results published in the NIST ThermoML archive (doi:10.1016/j.fluid.2014.03.001).
± gives the expanded uncertainty stated by the source.

Conditions: Crystal 1; DTA

Row | SMILES | Normal melting temperature
1 | CCCCCCCC/C=C\CCCCCCCC(=O)OCC [ethyl (Z)-9-octadeceneoate] | -18.8 ± 0.7 °C
2 | CCCCCCCCCCCCCCCCCC(=O)OCC [ethyl octadecanoate] | 34.7 ± 0.7 °C
3 | CCCCCCCCCCCCCC(=O)OCC [ethyl tetradecanoate] | 14.2 ± 0.5 °C
